# Measured values reported in publication PMC6199744, “Development of Chemical Proteomics for the Folateome and Analysis of the Kinetoplastid Folateome” (ACS Infectious Diseases, 2018).
# Test system: L. major lysate proteins
# Test: Multitargeted bead mixture chemoproteomics, single concentration competition, proteome-wide
# Format: binding
# Details: for fold change / fold change relative to vehicle control: vehicle control = 1; for fold change relative to vehicle control: competition with free ligand
compound,measurement,setting,value
CCCCCCOc1cccc(Cc2cnc(N)nc2N)c1 [compound 2],fold change vs vehicle control,"protein LMJF.22.0730 HY[…], CONSERVED",1.07
same,fold change,protein LMJF.22.1460 I/6 AUTOANTIGEN-LIKE PROTEIN,1.1
same,fold change vs vehicle control,"protein LMJF.22.1540 ALANYL-TRNA SYNTHETASE, PUTATIVE",1.04
same,fold change vs vehicle control,"protein LMJF.23.0370 […] OXIDASE SUBUNIT 10, PUTATIVE",1.09
same,fold change,protein LMJF.23.0830 NA/H ANTIPORTER-LIKE PROTEIN,0.96
same,fold change,"protein LMJF.23.1020 HY[…], UNKNOWN FUNCTION",1.14
same,fold change,"protein LMJF.23.1220 T-COMPLEX PROTEIN 1, GAMMA SUBUNIT, PUTATIVE",1.08
same,fold change vs vehicle control,protein LMJF.24.0140 ANKYRIN/TPR REPEAT PROTEIN,1.09
same,fold change,protein LMJF.24.0280 DYNEIN INTERMEDIATE-CHAIN-LIKE PROTEIN,0.94
same,fold change,"protein LMJF.24.0770 MALIC ENZYME, PUTATIVE",1.06
same,fold change relative to vehicle control,"protein LMJF.24.1510 IGE-DEPENDENT HISTAMINE-RELEASING FACTOR, PUTATIVE",1.53
same,fold change vs vehicle control,"protein LMJF.24.1630, SUCCINATE DEHYDROGENASE FLAVOPROTEIN, PUTATIVE",1
same,fold change vs vehicle control,"protein LMJF.24.1840 LYSOPHOSPHOLIPASE, PUTATIVE",1.01
same,fold change relative to vehicle control,protein LMJF.24.2060 TRANSKETOLASE,0.99
same,fold change,"protein LMJF.24.2250 FATTY-ACID DESATURASE, PUTATIVE",1.01
same,fold change vs vehicle control,"protein LMJF.25.0120 ELECTRON TRANSFER FLAVOPROTEIN, PUTATIVE",1.07
same,fold change vs vehicle control,"protein LMJF.25.0260 DYNEIN LIGHT CHAIN 1, CYTOPLASMIC, PUTATIVE",1.15
same,fold change relative to vehicle control,protein LMJF.25.0910 CYCLOPHILIN A,1.57
same,fold change vs vehicle control,"protein LMJF.25.1180, ATPASE BETA SUBUNIT, PUTATIVE",1.17
same,fold change,"protein LMJF.25.1610 HY[…], CONSERVED",1.09
same,fold change,"protein LMJF.25.1620 HY[…], CONSERVED",1.15
same,fold change vs vehicle control,protein LMJF.26.1240 HEAT SHOCK PROTEIN 70-RELATED PROTEIN,1.01
same,fold change vs vehicle control,"protein LMJF.26.1710 […] OXIDASE SUBUNIT V, PUTATIVE",1.08
same,fold change vs vehicle control,"protein LMJF.26.1960 HY[…], CONSERVED",1.05
same,fold change vs vehicle control,"protein LMJF.26.2000 HYPOTHETICAL PROTEIN, CONSERVED",1.23
same,fold change vs vehicle control,"protein LMJF.27.0420 RIBOKINASE, PUTATIVE",1.18
same,fold change vs vehicle control,"protein LMJF.27.1060 CYSTEINE DESULFURASE, PUTATIVE",0.93
same,fold change,"protein LMJF.27.1310 ARGINYL-TRNA SYNTHETASE, PUTATIVE",0.98
same,fold change vs vehicle control,"protein LMJF.27.2400 HEAT SHOCK PROTEIN DNAJ, PUTATIVE",0.96
same,fold change vs vehicle control,"protein LMJF.28.0110 […] 3 SUBUNIT, PUTATIVE",1.07
same,fold change vs vehicle control,"protein LMJF.28.0930 HY[…], CONSERVED",1.12
same,fold change vs vehicle control,"protein LMJF.28.0950 HY[…], CONSERVED",1.03
same,fold change vs vehicle control,"protein LMJF.28.1950 X-PRO, DIPEPTIDYL-PEPTIDASE,SERINE PEPTIDASE, CLAN SC, FAMILY S15, PUTATIVE",1.13
same,fold change relative to vehicle control,"protein LMJF.28.2770 HEAT-SHOCK PROTEIN HSP70, PUTATIVE",1.25
same,fold change,"protein LMJF.29.0060 TRYPTOPHANYL-TRNA SYNTHETASE, PUTATIVE",1.06
same,fold change,protein LMJF.29.0820 CYSTEINE PEPTIDASE C (CPC),0.82
same,fold change relative to vehicle control,"protein LMJF.29.0850 HIGH MOBILITY GROUP PROTEIN HOMOLOG TDP-1, PUTATIVE",1.3
same,fold change vs vehicle control,protein LMJF.29.1160 TRYPAREDOXIN,1.04
same,fold change,"protein LMJF.29.1760 PARAFLAGELLAR ROD PROTEIN 1D, PUTATIVE",0.97
same,fold change vs vehicle control,"protein LMJF.29.1780 DIPHTHAMIDE SYNTHESIS PROTEIN, PUTATIVE",0.98
same,fold change vs vehicle control,"protein LMJF.29.2240 AMINOPEPTIDASE, PUTATIVE",1.11
same,fold change,protein LMJF.29.2310 ENOYL-COA HYDRATASE/ISOMERASE-LIKE PROTEIN,1.08
same,fold change,protein LMJF.29.2860 40S RIBOSOMAL PROTEIN S19-LIKE PROTEIN,1.19
same,fold change vs vehicle control,"protein LMJF.30.0850 SURFACE PROTEIN AMASTIN, PUTATIVE",1.16
same,fold change,"protein LMJF.30.1250 PYRIDOXAL KINASE, PUTATIVE",1.01
same,fold change vs vehicle control,protein LMJF.30.3190 3-HYDROXY-3-METHYLGLUTARYL-COA REDUCTASE,1.04
same,fold change vs vehicle control,protein LMJF.30.3520 S-ADENOSYL[…],1.05
same,fold change vs vehicle control,"protein LMJF.31.0440 CYTOSKELETON-[…] CAP5 5, PUTATIVE",1
same,fold change,"protein LMJF.31.1130 N-ACYL-L-AMINO ACID AMIDOHYDROLASE, PUTATIVE",0.8
same,fold change vs vehicle control,protein LMJF.31.1640 THIOLASE PROTEIN-LIKE PROTEIN,1.14
same,fold change,protein LMJF.31.1800 AMINO ACID PERMEASE,1.08
same,fold change,"protein LMJF.31.2250 3,2-TRANS-ENOYL-COA ISOMERASE, MIT[…], PUTATIVE",0.92
same,fold change vs vehicle control,"protein LMJF.31.2790 ADP-RI[…], PUTATIVE",1.1
same,fold change,protein LMJF.31.3130 […]-COA CARBOXYLASE BIOTINYLATED […]-LIKE PROTEIN,1.03
same,fold change,"protein LMJF.32.0010 HYPOTHETICAL PROTEIN, CONSERVED",0.82
same,fold change vs vehicle control,"protein LMJF.32.0400 ATP-DEPENDENT RNA HELICASE, PUTATIVE",1.03
same,fold change vs vehicle control,"protein LMJF.32.0520 PROFILIN, PUTATIVE",1
same,fold change,"protein LMJF.32.1000 […]-COMPLEX PROTEIN, PUTATIVE",1.02
same,fold change vs vehicle control,"protein LMJF.32.3010 HYPOTHETICAL PROTEIN, CONSERVED,LEUCINE-RICH REPEAT PROTEIN, PUTATIVE",0.99
same,fold change vs vehicle control,protein LMJF.32.3870 MYOSIN XXI,0.91
same,fold change vs vehicle control,"protein LMJF.33.0890, HY[…], CONSERVED",1.05
same,fold change vs vehicle control,"protein LMJF.33.1070 HY[…], UNKNOWN FUNCTION",1.03
same,fold change,"protein LMJF.33.1330 CYSTEINE CONJUGATE BETA-LYASE, AMINOTRANSFERASE- LIKE PROTEIN",1.33
same,fold change,"protein LMJF.33.1610 PEPTIDASE M20/M25/M40, PUTATIVE",1
same,fold change relative to vehicle control,"protein LMJF.33.1630 CYCLOPHILIN 4, PUTATIVE",1.35
same,fold change vs vehicle control,"protein LMJF.33.2300 UDP-GLC 4'-EPIMERASE, PUTATIVE",1.15
same,fold change vs vehicle control,"protein LMJF.33.2390 HEAT SHOCK PROTEIN, PUTATIVE",1.12
same,fold change,"protein LMJF.33.2410 HY[…], CONSERVED",1.02
same,fold change,"protein LMJF.33.3150 40S RIBOSOMAL PROTEIN S13, PUTATIVE",1.22
same,fold change,"protein LMJF.34.3500 RUVB-LIKE 1 DNA HELICASE, PUTATIVE",1.2
same,fold change,"protein LMJF.34.3670 VACUOLAR ATP SYNTHASE CATALYTIC SUBUNIT A, PUTATIVE",1.09
same,fold change,protein LMJF.34.3740 SERINE PALMITOYLTRANSFERASE-LIKE PROTEIN,0.95
same,fold change,"protein LMJF.34.4120 HYPOTHETICAL PROTEIN, CONSERVED",0.91
same,fold change vs vehicle control,"protein LMJF.34.4370 20S […] 7 SUBUNIT, (PUTATIVE)",1.06
same,fold change,"protein LMJF.35.0370 ATP-DEPENDENT DEAD-BOX RNA HELICASE, PUTATIVE",1.03
same,fold change vs vehicle control,"protein LMJF.35.1380, MIT[…], BETA SUBUNIT, PUTATIVE",1.09
same,fold change vs vehicle control,"protein LMJF.35.1410 THREONYL-TRNA SYNTHETASE, PUTATIVE",0.97
same,fold change vs vehicle control,"protein LMJF.35.1720 CYCLOPHILIN 14, PUTATIVE",1.13
same,fold change,"protein LMJF.35.2500 HY[…], CONSERVED",1.03
same,fold change,"protein LMJF.35.2730 ACYL-COA DEHYDROGENASE, PUTATIVE",1.02
same,fold change relative to vehicle control,"protein LMJF.35.3010 […],TRYPANOTHIONE-DEPENDENT […]",1.16
same,fold change vs vehicle control,"protein LMJF.35.3100 ATP-DEPENDENT RNA HELICASE, PUTATIVE",1.09
same,fold change vs vehicle control,protein LMJF.35.3340 6-phosphogluconate dehydrogenase,1.05
same,fold change,"protein LMJF.35.3700 GIM5A PROTEIN, PUTATIVE,[…] PROTEIN",1.04
same,fold change vs vehicle control,"protein LMJF.35.3840 PROTEASOME BETA 2 SUBUNIT, PUTATIVE",0.82
same,fold change vs vehicle control,"protein LMJF.35.3860 T-COMPLEX PROTEIN 1, ETA SUBUNIT, PUTATIVE",1.06
same,fold change,"protein LMJF.35.4550 HYPOTHETICAL PROTEIN, CONSERVED",0.88
same,fold change,protein LMJF.35.4770 CYCLOPHILIN 40,0.93
same,fold change,"protein LMJF.35.4850 PROTEASOME ALPHA 1 SUBUNIT, PUTATIVE",1.1
same,fold change,"protein LMJF.35.4860 HYPOTHETICAL PROTEIN, CONSERVED",0.97
same,fold change relative to vehicle control,"protein LMJF.35.5330 ISOPENTENYL-D[…]-ISOMERASE, PUTATIVE,ISOMERASE, PUTATIVE",1.17
same,fold change vs vehicle control,protein LMJF.36.0180 ELONGATION FACTOR 2,1.2
same,fold change vs vehicle control,"protein LMJF.36.0620 HYPOTHETICAL PROTEIN, CONSERVED",1.47
same,fold change vs vehicle control,"protein LMJF.36.0990 40S RIBOSOMAL PROTEIN S10, PUTATIVE",1.17
same,fold change vs vehicle control,"protein LMJF.36.2020 CHAPERONIN HSP60, MIT[…]",1.01
same,fold change vs vehicle control,"protein LMJF.36.3460 HYPOTHETICAL PROTEIN, CONSERVED",0.88
same,fold change,"protein LMJF.36.3760 60S RIBOSOMAL PROTEIN L10A, PUTATIVE",1.2
same,fold change vs vehicle control,"protein LMJF.36.3840 GLYCYL TRNA SYNTHETASE, PUTATIVE",1.06
same,fold change vs vehicle control,"protein LMJF.36.4170 OXIDOREDUCTASE, PUTATIVE",1.05
same,fold change vs vehicle control,"protein LMJF.36.5010 40S RIBOSOMAL PROTEIN SA, PUTATIVE",1.14
same,fold change,"protein LMJF.36.5390 PHOSPHORIBOSYLPYROPHOSPHATE SYNTHETASE, PUTATIVE",0.96
same,fold change vs vehicle control,"protein LMJF.36.5620 ISOLEUCYL-TRNA SYNTHETASE, PUTATIVE",1.15
same,fold change vs vehicle control,protein LMJF.36.6430 PROTEIN TRANSPORT PROTEIN SEC23-LIKE PROTEIN,1.05
same,fold change,"protein LMJF.36.6760 HYPOTHETICAL PROTEIN, CONSERVED",1.1
same,fold change vs vehicle control,"protein LMJF.36.6910 T-COMPLEX PROTEIN 1, THETA SUBUNIT, PUTATIVE",1.05
same,fold change vs vehicle control,protein LMJF.36.6940 disulfide isomerase PDI,1.3
same,fold change vs vehicle control,"protein LMJF.[…] […] EXOPOLYPHOSPHATASE, PUTATIVE",0.78
